Results: the supplement of paper PMC11208160

assay: recombinant UMI read abundance after kanamycin selection (control-corrected) (log10(CPM+1)); higher = more efficient recombination; extreme values may be limits of the assay; sequences stand for … in AGTGCAGAGAAAATCGGCCAGTTTTCTCTGCCTGCAGTCCGCATGCCGTGGGACCCCTTGGGTTCTAACCTGTTGCCTAGATTTATGCAGCGGACTGCCTTTCTCCCAAAGTGATAAACCGG…AGGTTGGTTTCACT; site = the 11-nt donor
Summary of the method: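 Sequencing read counts were converted to CPM, averaged over two replicates and scaled by control-derived factors. Results are given as log10(CPM+1). The reads covered the donor–target junction of recombinant UMIs from a pooled Escherichia coli screen of donor and donor-binding-loop pairs for the IS621 bridge recombinase.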
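Note: IS621 bridge recombinase in Escherichia coli cells against a fixed T5 target plasmid.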

Sequence	recombinant UMI read abundance (log10)
GCTAGTGCATGGACCGGTTTTCCCGGTAATCCGTATTTGGT (site TCTAGTGCTAC)	0.581
GCTATGGCATGGACCGGTTTTCCCGGTAATCCGTATTTGAA (site GCTATGGCTTT)	1.55
GCTCCAACATGGACCGGTTTTCCCGGTAATCCGTATTTGAA (site GCTCCAACTTT)	0.939
GCTCCAACATGGACCGGTTTTCCCGGTAATCCGTATTTGTA (site GATCCAACTTA)	0.0429
GCTCCAACATGGACCGGTTTTCCCGGTAATCCGTATTTGTA (site GCTCCAACTTA)	0.877
GCTCCAACATGGACCGGTTTTCCCGGTAATCCGTATTTGTA (site GGTCCAACTTA)	0.0155
GCTCCAACATGGACCGGTTTTCCCGGTAATCCGTATTTGTA (site GTTCCAACTTA)	0.481
GCTCCGACATGGACCGGTTTTCCCGGTAATCCGTATTTGGA (site GCTCCGACTTC)	0.0323
GCTCGATCATGGACCGGTTTTCCCGGTAATCCGTATTTGGA (site GCTCGATCTTC)	1.99
GCTCGTCCATGGACCGGTTTTCCCGGTAATCCGTATTTGAG (site GCTCGTCCTCT)	0.0111
GCTCGTTCATGGACCGGTTTTCCCGGTAATCCGTATTTGAT (site GCTCGTTCTAT)	1.25
GCTCTGTCATGGACCGGTTTTCCCGGTAATCCGTATTTGTT (site GCTCTGTCTAA)	1.59
GCTGAATCATGGACCGGTTTTCCCGGTAATCCGTATTTGCA (site GCTGAATCTTG)	1.83
GCTGACGCATGGACCGGTTTTCCCGGTAATCCGTATTTGAT (site GCTGACGCTAT)	1.53
GCTGCCTCATGGACCGGTTTTCCCGGTAATCCGTATTTGGT (site GCTGCCTCTAC)	0.342
GCTGGTTCATGGACCGGTTTTCCCGGTAATCCGTATTTGTC (site GCTGGTTCTGA)	0.00915
GCTTATACATGGACCGGTTTTCCCGGTAATCCGTATTTGCT (site GCTTATACTAG)	0
GCTTGCCCATGGACCGGTTTTCCCGGTAATCCGTATTTGAG (site GCTTGCCCTAT)	0.0201
GCTTGCCCATGGACCGGTTTTCCCGGTAATCCGTATTTGAG (site GCTTGCCCTCT)	0.0701
GCTTGCCCATGGACCGGTTTTCCCGGTAATCCGTATTTGAG (site GCTTGCCCTGT)	0
GCTTGCCCATGGACCGGTTTTCCCGGTAATCCGTATTTGAG (site GCTTGCCCTTT)	0.107
GCTTGCCCATGGACCGGTTTTCCCGGTAATCCGTATTTGTT (site GCTTGCCCTAA)	0.0266
GCTTGCCCATGGACCGGTTTTCCCGGTAATCCGTATTTGTT (site GCTTGCCCTAC)	0.0939
GCTTGCCCATGGACCGGTTTTCCCGGTAATCCGTATTTGTT (site GCTTGCCCTAG)	0
GCTTGCCCATGGACCGGTTTTCCCGGTAATCCGTATTTGTT (site GCTTGCCCTAT)	0.013

Sequence	recombinant UMI read abundance (log10)
GCTTGGACATGGACCGGTTTTCCCGGTAATCCGTATTTGAC (site GATTGGACTGT)	0
GCTTGGACATGGACCGGTTTTCCCGGTAATCCGTATTTGAC (site GCTTGGACTGT)	2.39
GCTTGGACATGGACCGGTTTTCCCGGTAATCCGTATTTGAC (site GGTTGGACTGT)	0.132
GCTTGGACATGGACCGGTTTTCCCGGTAATCCGTATTTGAC (site GTTTGGACTGT)	0.707
GCTTGGCCATGGACCGGTTTTCCCGGTAATCCGTATTTGAT (site GCTTGACCTAT)	0.00769
GCTTGGCCATGGACCGGTTTTCCCGGTAATCCGTATTTGAT (site GCTTGCCCTAT)	0.00795
GCTTGGCCATGGACCGGTTTTCCCGGTAATCCGTATTTGAT (site GCTTGGCCTAT)	0
GCTTGGCCATGGACCGGTTTTCCCGGTAATCCGTATTTGAT (site GCTTGTCCTAT)	0.00708
GCTTGTACATGGACCGGTTTTCCCGGTAATCCGTATTTGGT (site GCTTGTACTAC)	1.08
GCTTTAACATGGACCGGTTTTCCCGGTAATCCGTATTTGCT (site GCTTTAACTAG)	0.0522
GCTTTCCCATGGACCGGTTTTCCCGGTAATCCGTATTTGAT (site GCTTACCCTAT)	0
GCTTTCCCATGGACCGGTTTTCCCGGTAATCCGTATTTGAT (site GCTTCCCCTAT)	0.00917
GCTTTCCCATGGACCGGTTTTCCCGGTAATCCGTATTTGAT (site GCTTGCCCTAT)	0.00235
GCTTTCCCATGGACCGGTTTTCCCGGTAATCCGTATTTGAT (site GCTTTCCCTAT)	0.343
GGAAACTCATGGACCGGTTTTCCCGGTAATCCGTATTTGTC (site GGAAACTCTGA)	2.42
GGAAAGACATGGACCGGTTTTCCCGGTAATCCGTATTTGCC (site GGAAAGACTGG)	1.64
GGAAAGACATGGACCGGTTTTCCCGGTAATCCGTATTTGCC (site GGACAGACTGG)	0
GGAAAGACATGGACCGGTTTTCCCGGTAATCCGTATTTGCC (site GGAGAGACTGG)	0.347
GGAAAGACATGGACCGGTTTTCCCGGTAATCCGTATTTGCC (site GGATAGACTGG)	0
GGAAAGGCATGGACCGGTTTTCCCGGTAATCCGTATTTGCT (site AGAAAGGCTAG)	1.75
GGAAAGGCATGGACCGGTTTTCCCGGTAATCCGTATTTGCT (site CGAAAGGCTAG)	1.06
GGAAAGGCATGGACCGGTTTTCCCGGTAATCCGTATTTGCT (site GGAAAGGCTAG)	2.39
GGAAAGGCATGGACCGGTTTTCCCGGTAATCCGTATTTGCT (site TGAAAGGCTAG)	1.25
GGAACAGCATGGACCGGTTTTCCCGGTAATCCGTATTTGCC (site GGAACAGCTGG)	3.09
GGAACATCATGGACCGGTTTTCCCGGTAATCCGTATTTGCT (site CGATCATCTAG)	0

Sequence	recombinant UMI read abundance (log10)
GGAACATCATGGACCGGTTTTCCCGGTAATCCGTATTTGCT (site GGAACATCTAG)	2.03
GGAACTTCATGGACCGGTTTTCCCGGTAATCCGTATTTGGC (site GGAACTTCTGC)	1.94
GGAAGATCATGGACCGGTTTTCCCGGTAATCCGTATTTGAA (site GGAAGATCTTT)	2.06
GGACACCCATGGACCGGTTTTCCCGGTAATCCGTATTTGTT (site GGACACCCTAA)	0.444
GGACACCCATGGACCGGTTTTCCCGGTAATCCGTATTTGTT (site GGCCACCCTAA)	0.011
GGACACCCATGGACCGGTTTTCCCGGTAATCCGTATTTGTT (site GGGCACCCTAA)	0.0209
GGACACCCATGGACCGGTTTTCCCGGTAATCCGTATTTGTT (site GGTCACCCTAA)	0.00995
GGACACGCATGGACCGGTTTTCCCGGTAATCCGTATTTGAC (site GGACACGCTGT)	2.38
GGACGCGCATGGACCGGTTTTCCCGGTAATCCGTATTTGGA (site GGACGCGCTTC)	0.00923
GGACGGCCATGGACCGGTTTTCCCGGTAATCCGTATTTGCG (site GGACGGCCTCG)	0.137
GGACTAGCATGGACCGGTTTTCCCGGTAATCCGTATTTGTA (site GGACTAGCTTA)	2.56
GGAGACACATGGACCGGTTTTCCCGGTAATCCGTATTTGTC (site GGAGACACTGA)	2.59
GGAGCATCATGGACCGGTTTTCCCGGTAATCCGTATTTGAA (site GGAGCATCTTT)	1.8
GGAGGCCCATGGACCGGTTTTCCCGGTAATCCGTATTTGAT (site GGAGGCCCTAT)	0.727
GGAGGGCCATGGACCGGTTTTCCCGGTAATCCGTATTTGGC (site GGAGGGCCTGC)	0
GGAGGTACATGGACCGGTTTTCCCGGTAATCCGTATTTGCG (site GGAGGTACTCG)	1.31
GGAGTCGCATGGACCGGTTTTCCCGGTAATCCGTATTTGGT (site GGAGTAGCTAC)	0.278
GGAGTCGCATGGACCGGTTTTCCCGGTAATCCGTATTTGGT (site GGAGTCGCTAC)	0.854
GGAGTCGCATGGACCGGTTTTCCCGGTAATCCGTATTTGGT (site GGAGTGGCTAC)	0.0282
GGAGTCGCATGGACCGGTTTTCCCGGTAATCCGTATTTGGT (site GGAGTTGCTAC)	0.00431
GGAGTGACATGGACCGGTTTTCCCGGTAATCCGTATTTGGT (site GGAGTGACTAC)	0.736
GGAGTGACATGGACCGGTTTTCCCGGTAATCCGTATTTGGT (site GGAGTGCCTAC)	0.00536
GGAGTGACATGGACCGGTTTTCCCGGTAATCCGTATTTGGT (site GGAGTGGCTAC)	0.259
GGAGTGACATGGACCGGTTTTCCCGGTAATCCGTATTTGGT (site GGAGTGTCTAC)	0.92
GGAGTGGCATGGACCGGTTTTCCCGGTAATCCGTATTTGCT (site GGAGTGGCTAA)	0.463
